In the supplement of paper PMC10307832 one finds relative viability data, which are given here for one cell line.

Common to all, as to assay: relative viability (nuclei count vs DMSO), 5 days (fraction); higher = more cells survive
Compound in the experiment “Tivantinib + Decitabine”: O=C1NC(=O)[C@@H](c2cn3c4c(cccc24)CCC3)[C@@H]1c1c[nH]c2ccccc12 [Tivantinib] + Nc1ncn([C@H]2C[C@H](O)[C@@H](CO)O2)c(=O)n1 [Decitabine] (partner 2 µM)
The gist of the method:
(§1)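 One day after seeding in 1536-well plates, lung cancer cell lines were dosed by pin tool. Dosing was either single-drug or a fixed anchor-drug dose plus five library-drug doses (not always all listed) in √10 steps. After 5 days, nuclei were stained in one fix-and-stain step and counted on 4× images, and relative viability is the nuclei count of treated wells over that of vehicle wells, given as the median of duplicate plates.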

Compound in the experiment “Crenolanib + Bortezomib”: CC1(COc2ccc3c(c2)ncn3-c2ccc3cccc(N4CCC(N)CC4)c3n2)COC1 [Crenolanib] + CC(C)C[C@H](NC(=O)[C@H](Cc1ccccc1)NC(=O)c1cnccn1)B(O)O [Bortezomib] (partner 0.002 µM)
The gist of the method: as §1

Compound in the experiment “Crenolanib + Vorinostat”: CC1(COc2ccc3c(c2)ncn3-c2ccc3cccc(N4CCC(N)CC4)c3n2)COC1 [Crenolanib] + O=C(CCCCCCC(=O)Nc1ccccc1)NO [Vorinostat] (partner 1 µM)
In short, it runs like this: as §1

Compound in the experiment “Tivantinib + OSI-027”: O=C1NC(=O)[C@@H](c2cn3c4c(cccc24)CCC3)[C@@H]1c1c[nH]c2ccccc12 [Tivantinib] + COc1cccc2cc(-c3nc([C@H]4CC[C@H](C(=O)O)CC4)n4ncnc(N)c34)[nH]c12 [OSI-027] (partner 0.5 µM)
In short, it runs like this: as §1

For UMC-11, the relative viability worked out at 0.574 with Tivantinib + Decitabine (first compound 0.01 µM); 0.532 in the experiment with Tivantinib + Decitabine (first compound 0.03162 µM); 0.527 with Tivantinib + Decitabine (first compound 0.1 µM); 0.434 in the experiment with Tivantinib + Decitabine (first compound 0.3162 µM); 0.811 in the experiment with Crenolanib + Bortezomib (first compound 0.01 µM); 0.753 with Crenolanib + Bortezomib (first compound 0.03162 µM). Moreover, the relative viability was determined as 0.703 with Crenolanib + Bortezomib (first compound 0.1 µM); 0.752 with Crenolanib + Bortezomib (first compound 0.3162 µM); 0.757 with Crenolanib + Bortezomib (first compound 1 µM); 0.383 in the experiment with Crenolanib + Vorinostat (first compound 0.01 µM); 0.453 with Crenolanib + Vorinostat (first compound 0.03162 µM); 0.389 with Crenolanib + Vorinostat (first compound 0.1 µM). Besides, the relative viability in the experiment with Crenolanib + Vorinostat (first compound 0.3162 µM) stood at 0.363; in the experiment with Crenolanib + Vorinostat (first compound 1 µM), 0.374; in the experiment with Tivantinib + OSI-027 (first compound 0.01 µM), 0.451; with Tivantinib + OSI-027 (first compound 0.03162 µM), 0.456; in the experiment with Tivantinib + OSI-027 (first compound 0.1 µM), 0.465; with Tivantinib + OSI-027 (first compound 0.3162 µM), 0.521.
